The test system of one test is IL-1. As to conditions: RA patients, long term administration; cited from earlier work.
In the next test the test system is TNFα. As to conditions: RA patients, long term administration; cited from earlier work.
The test system of test [1] is human peripheral blood lymphocytes. The experiment in a line: Suppression of human PBL proliferation in vitro ([3H]thymidine incorporation), with or without anti-CD3 (X-35). It counts as cell-based. The procedure:
One measure of immunosuppression is suppression of stimulated peripheral blood lymphocyte (PBL) proliferation in vitro. In the assay detailed in Example 3, PBLs were activated in vitro by addition of anti-CD3 monoclonal antibody (X-35 antibody). At the same time, purified tripterinin or vehicle (control) was added to each culture, at selected concentrations. After 72 hours incubation, tritiated thymidine was added to the culture medium, and thymidine incorporation into DNA was assayed, as a measure of DNA synthesis associated with cell proliferation.
The ability of tripterifordin to inhibit anti-CD3 stimulated PBL proliferation was assayed at concentrations of 0, 0.78, 3.13, and 12.5 μg/ml, with the results shown in FIG. 9.
Human peripheral blood lymphocytes were prepared using an established method (Boyum). Human blood buffy coat samples, approximately 25 ml/donor, were obtained from the Stanford University Medical Center Blood Bank. Using sterile technique, the buffy coat samples were gently resuspended in a total volume of 100 ml with the addition of calcium and magnesium free Hank's balanced salt solution (HBSS, obtained from Gibco) at room temperature. A volume of 25 ml of the cell suspension was then layered onto 15 ml of Ficoll-Pacque (Pharmacia LKB Biotechnology, Inc.) in a 50 ml conical centrifuge tube. Tubes were centrifuged in a Beckman GPR tabletop centrifuge (GH-3.7 Rotor) at 400×g for 30 minutes at 15° C.
Following centrifugation, the PBL suspensions at the interfaces were transferred to new 50 ml tubes using a transfer pipette, and the PBL samples were resuspended in a total volume of 45 ml HBSS and centrifuged at 354×g for 10 minutes at 15° C. Supernatants were discarded. PBL's were resuspended in 10 ml HBSS, combined to make a total of 45 ml HBSS, and centrifuged at 265×g for 10 minutes at 15° C. The cell pellets were suspended in 10 ml of X-Vivo tissue culture medium (Bio Whittaker) and counted using a hemocytometer. Tissue culture medium was then added to achieve a final cell concentration of 1× 10^6 cells/ml. Additional dilutions were carried out as required for each assay.
Assays were carried out in 96 well sterile tissue culture plates (Costar 3790 and Costar 3595). A volume of 150 μl of X-Vivo medium or sterile distilled water was added to the outer wells of the plate to prevent evaporation of medium within the experimental wells. PBL's from 2 different donors were used in parallel in all experiments. A volume of 100 μl PBL suspension was added to each well using a multichannel pipette. Plates were incubated in an atmosphere of 93% air/7% CO2 in a tissue culture incubator at 37° C. X-35 (AMAC #0178), an anti CD-3 surface antigen antibody, was used at 5 ng/ml to stimulate PBL proliferation.
Tripterinin or tripterifordin was dissolved in ethanol (10 mg/ml) and then diluted in sterile X-Vivo tissue culture medium to obtain the final concentrations required for each experiment.
Four hours prior to the conclusion of incubation, 50 μl of X-Vivo tissue culture medium containing 8 μCi/ml [^3 H]Thymidine (Amersham, 49 Ci/mmol) was added to each tissue culture well. After 72 hours total incubation time, the cells were removed from the tissue culture wells and applied to filter paper using a cell harvester (Brandel Model MB-24). The filter paper was dried for one hour under a heat lamp and then cut into 1 cm discs. Each sample was placed in a scintillation vial containing 2 ml of scintillation fluid (Biosafe, Research Products International Corp.). Samples were counted in a Beckman LS 6000SC scintillation counter.
On the technique in general: Incorporation of labelled thymidine or its analogues reports DNA synthesis.

In another test the test system is mouse thymocytes. The test can be described thus: Inhibition of IL-1 action: IL-1 stimulated mouse thymocyte proliferation in presence of PHA. It counts as cell-based. The note with it: tripterifordin 3.13 μg/ml, about 3 μg/ml, tripterinin 0.02 to 1 μg/ml. The protocol:
The ability of tripterinin and tripterifordin to suppress the cell-proliferative effect of IL-1 in mouse thymocytes, an index of IL-1 action (O'Gara), was also examined. In this study, mouse thymocytes in culture were stimulated with IL-1 in the presence of phytohemagglutinin (PHA) and increasing concentrations of purified tripterinin or tripterifordin. The cells were cultured for 72 hours, and during the last four hours, incubated with tritiated thymidine. DNA synthesis was assessed by measurement of radiolabeled thymidine incorporation.
Mouse thymocytes were prepared, and the action of IL-1, which stimulates thymocyte proliferation, was measured using standard techniques (O'Gara). Three to six week old C3H/HeN mice were obtained from Simonsen Laboratories, Gilroy, Calif. and sacrificed by CO2 inhalation. Thymi were removed, separated from adherent non-thymic tissue, homogenized in Hank's balanced salt solution (Gibco) using a glass homogenizer, and centrifuged at 180×g for 10 minutes at 15° C. Following an additional wash in HBSS, the thymocytes were resuspended in RPMI 1640 tissue culture medium (Gibco) containing 50 μM 2-mercaptoethanol (Fisher), 2 mM glutamine (Gibco), 1 mM sodium pyruvate, non-essential amino acids, penicillin (100 U/ml) streptomycin (100 μg/ml), 10% heat inactivated fetal bovine serum and Phytohemagglutinin (PHA, Pharmacia, final concentration 10 μg/ml). Cells were cultured in round-bottom 96 well microtiter tissue culture plates, 6×10^5 cells per well in a volume of 100 μl. Tripterinin or tripterifordin was diluted in tissue culture medium and added to the wells in the presence and absence of IL-1 (recombinant human IL-1, R&D Systems catalog #201-LB, 0.1 ng/ml). Total volume was 150 μl per well.
Plates were incubated for 72 hours (95% air/5% CO2, 37° C.). During the last four hours of incubation, [^3 H]-thymidine (Amersham, […]) was added (0.5 μCi per well). Cells were harvested onto Whatman 934-AH glass microfiber filters and counted in a Beckman LS 6000 scintillation counter. Results were expressed as counts per minute per well.

The next test has as its system HIV. The note with it: cited from earlier work.

Here are results for 2 molecules from patent publication US5468772A, “Tripterinin compound and method” (Pharmagenesis, Inc., priority 1993, dated 1995).

SMILES strings stand for the structures.

With `O=C(O)c1cc(/N=N/c2ccc(S(=O)(=O)Nc3ccccn3)cc2)ccc1O` [sulfasalazine], the “serum level of IL-1” value with IL-1 is listed as “decline”. Besides, the “serum level of TNFα” value with TNFα was “decline”.
Take `C[C@@]1(O)C[C@@]23CC[C@H]4[C@@]5(CCC[C@]4(C)C(=O)OC5)[C@@H]2CC[C@H]1C3` [tripterifordin, reference compound]: the “inhibition of anti-CD3 stimulated PBL proliferation” value in test [1] (highest concentration tested, 12.5 μg/ml, FIG. 9) is “failed to significantly inhibit PBL proliferation”. Also, the “inhibitory effect on PBL proliferation” value in test [1] (stimulated and unstimulated (tripterinin), FIG. 9 (tripterifordin)) is “little or no inhibitory effect”. Besides, the “inhibition of IL-1 stimulated thymocyte proliferation” value in the test on mouse thymocytes is on record as “little or no inhibitory effect”; in the test with mouse thymocytes (listed as Tripterifordin) it was “failed to inhibit”. The anti-HIV activity result in the test on HIV is “anti-HIV principle”.
